Results on two compounds are retold here after patent publication US10124035B2, “DISC-1 pathway activators in the control of neurogenesis” (Massachusetts Institute of Technology, priority 2008, dated 2018).

“Also recorded” adds a separate entry of the source.

The subject of data set [1] is adult progenitor proliferation in dentate gyrus. The experiment in a line: Adult progenitor proliferation in dentate gyrus (BrdU) after lentivirus injection. In kind it is in vivo. From the text:
Cell positioning and BrdU incorporation defects caused by DISC1 loss-of-function are rescued by human WT-DISC1 or SA-β-catenin. The percentage of GFP positive cells in the SVZ/VZ or CP is shown (n=5, **, p<0.01; ***, p<0.005). Scale bar=20 μm. b. The reduction in mitotic index caused by DISC1 knockdown in embryonic brains is rescued by human WT-DISC1 or SA-β-catenin. Arrows indicate GFP and pH3 double positive cells. Shown is the percentage of GFP and pH3 double positive cells in total GFP positive cells (n=4, *, p<0.05; ***, p<0.005). Scale bar=20 μm. c. Control or DISC1 shRNA-1 lentivirus was stereotactically injected into adult dentate gyms. After 4 weeks of recovery, mice received SB216763 (2 mg/kg) every other day for 2 weeks and BrdU (100 mg/kg) daily for 7 days. The GFP signal represents lentiviral infected cells in dentate gyms. Scale bar=50 μm. d. […] The percentage of GFP and BrdU double positive cells is shown (n=5, *, p<0.05; **, p<0.01; ***, p<0.005; ns, not significant). Scale bar=10 μm.
• Mice. Swiss Webster pregnant female mice were purchased from Taconic (Hudson, N.Y.). • Cell Culture. AHPs were kindly provided by Dr. Gage (Lie, D. C. et al. Wnt signaling to regulates adult hippocampal neurogenesis. Nature 437, 1370-5 (2005)) and cultured under conditions described previously (Palmer, T. D., Takahashi, J. & Gage, F. H. The adult rat hippocampus contains primordial neural stem cells. Mol Cell Neurosci 8, 389-404 (1997)). Primary neural progenitors were isolated from E14 mouse embryos and cultured as described previously (Sanada, K. & Tsai, L. H. G protein betagamma subunits and AGS3 control spindle orientation and asymmetric cell fate of cerebral cortical progenitors. Cell 122, 119-31 (2005)). N2a and 293T cells were cultured in DMEM medium containing 10% FBS, L-glutamine, and penicillin/streptomycin. Wnt3a expressing L cells and untransfected L cells were obtained from ATCC (Manassas, Va.). Wnt3a conditional medium was produced according to the ATCC protocol. To induce AHP differentiation, FGF2 was removed from the culture medium and 1 μM retinoic acid/1% FBS was added to the medium for 4 days. • Reagents. Recombinant Wnt3a protein was obtained from Chemicon (Rosemont, Ill.). FGF2 was obtained from PeproTech (Rocky Hill, N.J.). Recombinant GST-GSK3β was obtained from Active Motif (Carlsbad, Calif.). Recombinant GST-β-catenin and GST-axin were obtained from Millipore (Billerica, Mass.). The GSK313 inhibitor, SB-216763, AR-A104418 and His-GSK3β, were obtained from Sigma-Aldrich (Sigma-Aldrich, St. Louis, Mo.). L803-MTS was obtained from Calbiochem (San Diego, Calif.). GST-AKT1 was obtained from Cell Signaling (Beverly, Mass.). […]

In data set [2] the test system is DISC1 shRNA infected mice. Description: Forced swim test. In kind it is in vivo, mouse. On the procedure: (§1) Behavioral abnormalities in DISC1 knockdown mice. a. DISC1 knockdown in adult dentate gyms caused increased hyperactivity in the Open Field Test. b and c. DISC1 knockdown in adult dentate gyms caused depressive-like behavior in the Forced Swimming test and the Novelty Suppression Feeding experiment. b. Forced Swimming Test Mice were put in the beaker with water for 6 minutes and counted the last 4 minutes for the time of immobility. c. Novelty Suppression Feeding Test. Mice were restricted with food for 48 hours and tested for the motivation to eat food. Mice were tested the latency for first bite, the time they spent on food, and the time they ate during 5 minutes. d. […] Mice were injected and allowed to recover for 2 weeks, then treated with the GDK3beta inhibitor SB216763 at 2 mg/kg/day for two weeks, after that the behavioral test was performed.
Alterations in neurogenesis are implicated in the development of depression and other abnormal behaviors. To examine the behavioral consequences of disrupting the DICS1/GSK3β pathway, we silenced DISC1 expression in the adult dentate gyms and evaluated behavioral consequences. Four weeks after the injection of control or DISC1 shRNA-1 lentivirus, mice were treated with vehicle or SB-216763 (2 mg/kg i.p.) every other day for 10 days. […]

In data set [3] the test system is DISC1 shRNA injected mice. Description: Open Field test (hyperlocomotion in response to novelty). The conditions noted are these: for hyperlocomotion/hyperactivity in novel open field: DISC1 shRNA injected mice, SB-216763 2 mg/kg i.p. In kind it is in vivo, mouse. On the procedure: as §1
Alterations in neurogenesis are implicated in the development of depression and other abnormal behaviors. To examine the behavioral consequences of disrupting the DICS1/GSK3β pathway, we silenced DISC1 expression in the adult dentate gyms and evaluated behavioral consequences. Four weeks after the injection of control or DISC1 shRNA-1 lentivirus, mice were treated with vehicle or SB-216763 (2 mg/kg i.p.) every other day for 10 days. […] DISC1 shRNA injected mice traveled a greater distance and spent more time moving in a novel open field than control mice (FIG. 17A). These behaviors were normalized by SB-216763 treatment. We further tested whether DISC1 loss-of-function had consequences on depression-like behavior in the forced swim test. […] Importantly, swimming velocity was unchanged. […] Thus, increased GSK3β activity caused by DISC1 loss-of-function is associated with schizophrenia- and depression-like behaviors.

For data set [4] the following is noted: previously reported (Selenica et al. 2007); cited from earlier work.
Where [5] appears, read: lentivirus in adult dentate gyrus, compared to control mice.

For `Cn1cc(C2=C(c3ccc(Cl)cc3Cl)C(=O)NC2=O)c2ccccc21` [SB-216763], the “BrdU positive cells in dentate gyrus” value in data set [1] (DISC1 shRNA-1 infected mice, SB216763 2 mg/kg for 2 weeks, 2 mg/kg) was “no longer exhibited a reduction in BrdU positive cells; also recorded: can be rescued”. Also, the “number of BrdU positive cells in dentate gyrus” value in data set [1] (mice infected with control virus, SB216763 2 mg/kg for 2 weeks) was “significantly increased the number of BrdU positive cells”. The “immobility in forced swim test” value in data set [2] (DISC1 shRNA infected mice, SB-216763 2 mg/kg i.p.) was “suppressed”. Moreover, the “hyperlocomotion/hyperactivity in novel open field” value is listed as “normalized” in data set [3] (2 mg/kg) and “can be rescued” in data set [3] (listed as SB216763, 2 mg/kg). The “crossing of the blood-brain barrier” value in data set [4] is reported as “cross the blood-brain barrier”.
With “DISC1 shRNA-1: shRNA targeting rat and mouse DISC1, SEQ ID NO:4, in pLentiLox 3.7 vector (GGCAAACACTGTGAAGTGC)”, the “active caspase 3 labeling in GFP positive cells in the dentate gyrus” value in data set [1] (lentivirus injected adult mice) is recorded as “no increase in active caspase 3 labeling”. For the same compound, in data set [1] (lentivirus injected, compared to control shRNA cells), the “BrdU incorporation in adult dentate gyrus” value was “significant reduction in BrdU incorporation”. In addition, the “immobility in forced swim test” value in data set [2] (setting [5]) is recorded as “greater immobility”. In addition, the “locomotion in novel open field” value in data set [3] (setting [5]) was “hyperlocomotion in response to novelty”.
